Data reported in BindingDB's records for doi:10.1021/jm00082a007 (J. Uriach & Cía., 1992).

Molecular target: Platelet-activating factor receptor (Oryctolagus cuniculus)
Experiment: In vitro inhibition of PAF induced aggregation of rabbit platelets.

Row | SMILES | IC50 [nM]
1 | CCOC1CC(COC(=O)N(Cc2cccc[n+]2CC)C(C)=O)CO1 (stereo not given) | 2800
2 | CC[n+]1ccccc1CN(C(C)=O)C(=O)OCC1COC(OCCC(c2ccccc2)c2ccccc2)C1 (stereo not given) | 260
3 | CC[n+]1ccccc1CN(C(C)=O)C(=O)OCC1COC(OCCCc2ccccc2)C1 (stereo not given) | 190
4 | C=CCCCCCCOCCCCCCOC1CC(COC(=O)N(Cc2cccc[n+]2CC)C(C)=O)CO1 (stereo not given) | 25
5 | CC[n+]1ccccc1CN(C(C)=O)C(=O)OCC1COC(OCCCCCCOCCCCCc2ccccc2)C1 (stereo not given) | 15

The remaining compounds from weak to strong by IC50, led by results:

Row | IC50 [nM] | SMILES
6 | 51 | CC[n+]1ccccc1CN(C(C)=O)C(=O)OCC1COC(OCCCCCCOCCCc2ccccc2)C1 (stereo not given)
7 | 40 | CCCCCCCCCCCCCCCCCCCCOC1CC(COC(=O)N(Cc2cccc[n+]2CC)C(C)=O)CO1 (stereo not given)
8 | 15 | CC[n+]1ccccc1CN(C(C)=O)C(=O)OCC1COC(OCCCCCCOCc2ccc(-c3ccccc3)cc2)C1 (stereo not given)
9 | 9.7 | CCCCCCCCCCCCCCCCOC1CC(COC(=O)N(Cc2cccc[n+]2CC)C(C)=O)CO1 (stereo not given)
10 | 2.1 | CC[n+]1ccccc1CN(C(C)=O)C(=O)OCC1COC(OCCCCCCCCCCCCCCCCOC)C1 (stereo not given)
